Data as given in publication PMC10820135, “Pharmacokinetic, Tissue Distribution, Metabolite, and Toxicity Evaluation of the Matrine Derivative, (6aS, 10S, 11aR, 11bR, 11cS)-10-Methylaminododecahydro-3a, 7a-Diaza-benzo (de) Anthracene-8-thione” (Molecules, 2024).
Entries after “also recorded” stand apart in the source; their conditions may differ.

Test system: ICR mice
Test: Acute toxicity of MASM in mice via intravenous administration
Type: in vivo
Experimental: All mice were administered MASM intravenously. The body weight of each mouse was measured on days 7 and 14. On the 14th day, all mice were euthanized, and the heart, liver, spleen, lung, and kidney were collected and weighed immediately. Serum was collected from the eyeballs for further biochemical analysis, and a small portion of each tissue and organ was fixed in 4% […] solution for histopathological examination. Bar graphs were generated applying Prism 8.0 (GraphPad Software Inc., San Diego, CA, USA), and HE staining samples were captured using the Leica image system.

Structure (SMILES): CNC1CC(=S)N2CC3CCCN4CCCC(C34)C2C1 [MASM, (6aS, 10S, 11aR, 11bR, 11cS)-10-methylaminododecahydro-3a, 7a-diaza-benzo (de) anthracene-8-thione]
- viscera indices (visceral weight to body weight) of heart, liver, spleen, lung, kidney (day 14, vs control group, all dosages): no significant alterations; also recorded: remained unchanged
- heart histopathology (HE staining) (high (240 mg/kg) and medium-high (144 mg/kg) dose groups): noticeable increase in myocardial fiber density
- spleen histopathology (HE staining) (high and medium-high dose groups vs control): slight increase in the count of splenic sinusoids and lymph nodes
- liver histopathology (HE staining) (high and medium-high dose groups, accompanied by portal area bleeding): noteworthy escalation in the number of hepatocytes
- kidney histopathology (HE staining) (high-dose group (240 mg/kg)): proliferation and dense arrangement, accompanied by evident bleeding
- lung histopathology (HE staining), alveolar cavity (high-dose group (240 mg/kg)): widened, accompanied by hemorrhaging
- lung histopathology (HE staining), alveolar wall (medium-dose to low-dose groups): slight thinning
- kidney histopathology, renal interstitial blood vessels (medium-high and medium-dose groups): proliferation and dilation
- ALP activity in plasma vs control (mice, day 14, p > 0.05): no statistically significant differences
- ALT activity in plasma vs control (mice, day 14, p > 0.05): no statistically significant differences
- AST activity in plasma vs control (mice, day 14, p > 0.05): no statistically significant differences
- albumin (ALB) level in plasma vs control (mice, day 14, p > 0.05): no statistically significant differences
- creatinine (CREA) level in plasma vs control (mice, day 14, p > 0.05): statistically indistinguishable from those of the control group; also recorded: no statistically significant differences
- total protein (TP) level in plasma vs control (mice, day 14, p > 0.05): no statistically significant differences
- urea (UREA) level in plasma vs control (mice, day 14, p > 0.05): statistically indistinguishable from those of the control group; also recorded: no statistically significant differences
- symptoms upon death (mice, intravenous): convulsions, increased salivary secretion, urination, and defecation
- overall histopathological changes of primary organs (particularly low (31.1 mg/kg), medium-low (51.84 mg/kg), medium (86.4 mg/kg) dose groups): no significant alterations; also recorded: no substantial pathological alterations; also recorded: did not reveal any significant pathological changes
